Tests used:
living cells = details: cited from earlier work
Experimental: Long-term cell tracking have recently attracted intensive research interest, as it can provide meritorious information on cell therapy and its processes, as well as on studying the mechanism of cancer pathogenesis, invasion and metastasis. Consequently, the application of the fluorescent nanofibrous hydrogel in long-term cell tracking was investigated. The HeLa cancer cells were incubated with the nanofiber suspension for 4 h at 37 °C. Subsequently, the nanofiber-labeled cells were subcultured for designated time intervals, followed by imaging with CLSM.

4T1 tumor-bearing mice [1] = assay: Fluorescence imaging in tissue slices (CLSM); format: in vivo, BALB/c mice; details: intravenous, 0.1 mL of 100 μM, 0.5 h post-injection; vessels immunostained with PECAM-1
Experimental: At 0.5 h post administration of 0.1 mL of fluorescent nanofiber and precursor (100 μM), respectively, the mice were sacrificed. Subsequently, the tumor tissues were dissected, fixed in 4% paraformaldehyde for 2 h, incubated in 20% sucrose/PBS overnight and embedded in Optimal Cutting Temperature (OCT) compound (Tissue-Tek). Sections (6 μm) were immunostained with monoclonal antibody against platelet/endothelial cell adhesion molecule 1 (PECAM-1; PharMingen). Alexa Fluor 633-conjugated antirabbit antibody was used as secondary antibody (Molecular Probes). The cell nuclei were stained with DAPI. The tumor slices were imaged by CLSM with excitation wavelength at 405 nm, 543 nm, and 633 nm for DAPI, Rhodamine B, and PECAM-1, respectively. Furthermore, at 24 h post administration of nanofiber and precursor, respectively, the slices of various tissues including tumor, intestine, liver, spleen, kidney, and heart were obtained following the aforementioned experimental procedures. After that, the cell nuclei in the tissue slices were stained with DAPI, which was followed by imaging with CLSM.

HeLa cancer cells = assay: Cellular uptake and imaging by CLSM; format: cell-based, Human; details: Rhodamine B concentration 100 μM, 2 h, FBS-free DMEM, excitation 543 nm
Experimental: The HeLa cancer cells were cultured in confocal imaging chambers (LAB-TEK, Chambered Coverglass System) at 37 °C. After 80% confluence, the medium was removed and the adherent cells were washed twice with 1 × PBS buffer. The nanofiber and precursor in FBS-free DMEM medium at the Rhodamine B concentration of 100 μM were then added to the chamber, respectively. After incubation for 2 h, the cells were washed with 1 × PBS buffer and then imaged with confocal laser scanning microscope (CLSM, Zeiss LSM 410, Jena, Germany). The fluorescent signal from the Rhodamine B was collected upon excitation at 543 nm with a 560 nm longpass barrier filter. The HepG2 cancer cellular imaging was performed following the same experimental procedures.

[2] = Gelation after GSH addition, vial inversion method; format: physicochemical
Experimental: Therefore, rheological measurement of the hydrogel was carried out.
5.0 mg of Rhodamine-GFFYE-CS-EE and 3 equiv. of Na2CO3 (in order to adjust the pH value of the final solution) were dissolved in 1.0 mL of PBS buffer (pH 7.4), and then 4 equiv. of reduced glutathione (GSH) was added to the solution. After about 20 minutes at room temperature, the self-supporting hydrogel was formed. Moreover, after dilution of the hydrogel with aqueous solution, the fluorescent nanofiber suspension was obtained.

4T1 tumor-bearing mice [3] = assay: Ex vivo fluorescence imaging of tumor and organs (Maestro system); details: intravenous, 0.1 mL of 100 μM, 24 h post-injection; excitation 523 nm
Experimental: Eight-week-old BALB/c mice were purchase from the Laboratory Animal Center of the Academy of Military Medical Sciences (Beijing, China). To establish tumor-bearing mouse model, a 4T1 cancer cell suspension containing 5 × 10^5 cells (50 μL) was injected subcutaneously into the mice at the right axillae.
4T1 tumor-bearing mice were intravenously administrated with 0.1 mL of fluorescent nanofiber or precursor (100 μM). At 24 h post-injection, the mice were sacrificed, the tissues including liver, kidney, spleen, intestine, heart, lung, stomach, skin, muscle and tumor were excised and imaged using the Maestro system (CRi, Inc., Woburn, USA). Light with a central wavelength of 523 nm was selected as the excitation source. Spectral imaging from 560 to 900 nm with 10 nm steps was carried out with an exposure time of 150 ms.

CC(=O)Oc1ccc2c(c1)Oc1cc(OC(C)=O)ccc1C21OC(=O)c2cc(CCl)ccc21 [CellTrackerTM Green CMFDA]
number of passages over which living cells can be traced (living cells): no more than 3 passages

Rhodamine-GFFYE-CS-EE [precursor]
red fluorescence in tumor slices (tumor accumulation) (4T1 tumor-bearing mice [1]): negligible red fluorescence
cellular uptake / spatial distribution in cells (HeLa cancer cells): internalized in the cell cytoplasm
time of gelation process after addition of GSH ([2]; 37 °C): around 30 min
time to hydrogel formation after addition of GSH ([2]; room temperature): 2 h
ex vivo fluorescence signal in tumor (4T1 tumor-bearing mice [3]): far weaker
